Measurements taken from the CheMixHub viscosity set.
Values joined by “and” are separate entries in the source; they are usually repeats but may differ in a detail not shown here. Equal values may be shown once.

Tests used:
[1] = xn = mol fraction of the nth substance listed

OCCCO
viscosity
Settings | 293.15 K | 298.15 K | 303.15 K | 308.15 K | 313.15 K | 318.15 K | 323.15 K
100 kPa | 54.53 mPa·s (2×) and 53.1 mPa·s and 52.75 mPa·s | 42.89 mPa·s (2×) and 41.2 mPa·s | 34.62 mPa·s (2×) and 33.4 mPa·s and 32.51 mPa·s | 27.06 mPa·s | 21.85 mPa·s | 19.93 mPa·s | –
101 kPa | – | 42.1 mPa·s and 42.06 mPa·s | 33.7 mPa·s | – | 22.1 mPa·s and 20.29 mPa·s | 18.8 mPa·s and 16.88 mPa·s | 14.16 mPa·s
101.3 kPa | – | 41.77 mPa·s | 33.35 mPa·s | – | 22.39 mPa·s | 18.61 mPa·s | 15.66 mPa·s

OCCCl
viscosity
Settings | 293.15 K | 298.15 K | 303.15 K | 308.15 K | 313.15 K
100 kPa | – | – | – | 2.234 mPa·s | 1.882 mPa·s
101.3 kPa | – | 2.973 mPa·s | 2.611 mPa·s | – | –
101.33 kPa | 3.588 mPa·s | 2.81 mPa·s and 2.985 mPa·s | 2.624 mPa·s and 2.448 mPa·s | 2.15 mPa·s | –

C=CCO + O
[1]
Settings | viscosity [mPa·s]
298.15 K, 101.33 kPa, x1 = 0.04829 | 1.349
298.15 K, 101.33 kPa, x1 = 0.09818 | 1.682
298.15 K, 101.33 kPa, x1 = 0.1362 | 1.789
298.15 K, 101.33 kPa, x1 = 0.146 | 1.846
298.15 K, 101.33 kPa, x1 = 0.2038 | 1.888
298.15 K, 101.33 kPa, x1 = 0.2149 | 1.895
298.15 K, 101.33 kPa, x1 = 0.2178 | 1.887
298.15 K, 101.33 kPa, x1 = 0.2213 | 1.892
298.15 K, 101.33 kPa, x1 = 0.2883 | 1.891
298.15 K, 101.33 kPa, x1 = 0.3655 | 1.796
298.15 K, 101.33 kPa, x1 = 0.4148 | 1.75
298.15 K, 101.33 kPa, x1 = 0.6057 | 1.537
303.15 K, 101 kPa, x1 = 0.1 | 1.415
303.15 K, 101 kPa, x1 = 0.199 | 1.604
303.15 K, 101 kPa, x1 = 0.299 | 1.603
303.15 K, 101 kPa, x1 = 0.4 | 1.531
303.15 K, 101 kPa, x1 = 0.5 | 1.44
303.15 K, 101 kPa, x1 = 0.6 | 1.369
303.15 K, 101 kPa, x1 = 0.696 | 1.297
303.15 K, 101 kPa, x1 = 0.795 | 1.233
303.15 K, 101 kPa, x1 = 0.896 | 1.176
313.15 K, 101 kPa, x1 = 0.1 | 1.082
313.15 K, 101 kPa, x1 = 0.199 | 1.23
313.15 K, 101 kPa, x1 = 0.299 | 1.238
313.15 K, 101 kPa, x1 = 0.4 | 1.202
313.15 K, 101 kPa, x1 = 0.5 | 1.143
313.15 K, 101 kPa, x1 = 0.6 | 1.096
313.15 K, 101 kPa, x1 = 0.696 | 1.045
313.15 K, 101 kPa, x1 = 0.795 | 1.002
313.15 K, 101 kPa, x1 = 0.896 | 0.9616
318.15 K, 101 kPa, x1 = 0.1 | 0.9613
318.15 K, 101 kPa, x1 = 0.199 | 1.09
318.15 K, 101 kPa, x1 = 0.299 | 1.103
318.15 K, 101 kPa, x1 = 0.4 | 1.072
318.15 K, 101 kPa, x1 = 0.5 | 1.031
318.15 K, 101 kPa, x1 = 0.6 | 0.991
318.15 K, 101 kPa, x1 = 0.696 | 0.9463
318.15 K, 101 kPa, x1 = 0.795 | 0.9099
318.15 K, 101 kPa, x1 = 0.896 | 0.876
323.15 K, 101 kPa, x1 = 0.1 | 0.8601
323.15 K, 101 kPa, x1 = 0.199 | 0.9754
323.15 K, 101 kPa, x1 = 0.299 | 0.9907
323.15 K, 101 kPa, x1 = 0.4 | 0.9622
323.15 K, 101 kPa, x1 = 0.5 | 0.9263
323.15 K, 101 kPa, x1 = 0.6 | 0.8973
323.15 K, 101 kPa, x1 = 0.696 | 0.8586
323.15 K, 101 kPa, x1 = 0.795 | 0.8284
323.15 K, 101 kPa, x1 = 0.896 | 0.8008
